Consider 3 compounds from ChEMBL document CHEMBL3351674, “Novel polycarboxylate porphyrins: synthesis, characterization, photophysical properties and preliminary antimicrobial study against Gram-positive bacteria” (Bioorg Med Chem Lett, 2015).

Data set [1] can be described thus: 2-octanol-aqueous buffer partition coefficient, logP of the compound at pH 7.4. Format: physicochemical.
Data set [2] is described as follows: Photostability of the compound in air-saturated phosphate buffer solution under 2.5 mW/cm'2 white light. Format: physicochemical.
A further data set concerns Bacillus cereus. Description: Antibacterial activity against Bacillus cereus assessed as decrease in cell viability at > 50 uM after 30 mins under 2.5 mW/cm'2 white light by confocal microscopy/UV-diode laser method. Format: functional, organism-based.
In a further data set the test system is Staphylococcus aureus. The data set can be described thus: Antibacterial activity against Staphylococcus aureus assessed as decrease in cell viability at > 50 uM after 30 mins under 2.5 mW/cm'2 white light by confocal microscopy/UV-diode laser method. Format: functional, organism-based.
The nature of data set [3]: Photostability of the compound in nitrogen-saturated phosphate buffer solution under 2.5 mW/cm'2 white light. Format: physicochemical.

SMILES strings stand for the structures. Calls of active or inactive are those of the source. The calls are words filed in the database; no cut-off is given here.

`CC(C)(C)OC(=O)COc1cc(OCC(=O)OC(C)(C)C)c(-c2c3nc(c(-c4ccc(C(=O)O)cc4)c4ccc([nH]4)c(-c4c(OCC(=O)OC(C)(C)C)cc(OCC(=O)OC(C)(C)C)cc4OCC(=O)OC(C)(C)C)c4nc(c(-c5ccc(C(=O)O)cc5)c5ccc2[nH]5)C=C4)C=C3)c(OCC(=O)OC(C)(C)C)c1`: the pH-dependent lipophilicity (logD) (usually the decadic logarithm of the distribution of all forms, ionised or not, between an organic phase and buffer at a given pH) in data set [1] stood at 1.66.

Take `Cc1cc(C)c(-c2c3nc(c(-c4c(OCC(=O)O)cc(OCC(=O)O)cc4OCC(=O)O)c4ccc([nH]4)c(-c4c(C)cc(C)cc4C)c4nc(c(-c5c(OCC(=O)O)cc(OCC(=O)O)cc5OCC(=O)O)c5ccc2[nH]5)C=C4)C=C3)c(C)c1`: the Stability result in data set [2] is on record as “Unstable”; in data set [3], “Stable”. Also, the result with Bacillus cereus and in the data set on Staphylococcus aureus was Active. Further, the logD in data set [1] is -0.77.

On to `O=C(O)COc1cc(OCC(=O)O)c(-c2c3nc(c(-c4ccc(C(=O)O)cc4)c4ccc([nH]4)c(-c4c(OCC(=O)O)cc(OCC(=O)O)cc4OCC(=O)O)c4nc(c(-c5ccc(C(=O)O)cc5)c5ccc2[nH]5)C=C4)C=C3)c(OCC(=O)O)c1`, for which the Stability entry is listed as “Unstable” in data set [2] and “Stable” in data set [3]. The result in the data set on Bacillus cereus was inactive. In addition, the logD in data set [1] is -2.17. In addition, the outcome in the data set with Staphylococcus aureus was Active.
